Where two headings read alike, the source gives them in different places. Where a SMILES comes first, the peptide text is derived from it. Bridges are numbered along the chain shown (N, C = ends). [ ]: non-standard residue; d: D form. The star is where a group is joined. hPhe(3,5-F2-4-CF3) = N[C@@H](CCc1cc(F)c(C(F)(F)F)c(F)c1)C(=O)O; hPhe(3-Cl-4-CF3) = N[C@@H](CCc1ccc(C(F)(F)F)c(Cl)c1)C(=O)O; NPrPhe(4-CF3) = CCCN[C@@H](Cc1ccc(C(F)(F)F)cc1)C(=O)O; NMeGly(cPent) = CN[C@H](C(=O)O)C1CCCC1; Pro(4,4-F2) = O=C(O)[C@@H]1CC(F)(F)CN1; NMeD = CN[C@@H](CC(=O)O)C(=O)O; NMeL = CN[C@@H](CC(C)C)C(=O)O; αMeL = CC(C)C[C@](C)(N)C(=O)O; NMeNva = CCC[C@H](NC)C(=O)O; Morpholide = C1CN(*)CCO1; NMeA = CN[C@@H](C)C(=O)O; Ac5c = NC1(C(=O)O)CCCC1; Aze = O=C(O)[C@@H]1CCN1; Ac4c = NC1(C(=O)O)CCC1; Sar = CNCC(=O)O

In assay [1] the target is GDP-bound KRAS wild-type protein (Homo sapiens, UniProt P01116). The assay is described as follows: Binding to KRAS by surface plasmon resonance (SPR), Single Cycle Kinetics. The note with it: GDP-bound KRAS wild-type protein, read-out: KRAS KD.
The target of assay [2] is GDP-bound NRAS wild-type protein (Homo sapiens, UniProt P01111). The assay is described as follows: Binding to NRAS by surface plasmon resonance (SPR), Single Cycle Kinetics. Conditions: for NRAS/KRAS (ratio of KD value with respect to NRAS to KD value with respect to KRAS) / NRAS/KRAS (ratio of KD value for NRAS to KD value for KRAS): SPR, GDP-bound NRAS wild-type protein vs GDP-bound KRAS wild-type protein.

Assay [3] addresses GDP-bound HRAS wild-type protein (Homo sapiens, UniProt P01112). In words: Binding to HRAS by surface plasmon resonance (SPR), Single Cycle Kinetics. Conditions: for HRAS/KRAS (ratio of KD value with respect to HRAS to KD value with respect to KRAS) / HRAS/KRAS (ratio of KD value for HRAS to KD value for KRAS): SPR, GDP-bound HRAS wild-type protein vs GDP-bound KRAS wild-type protein.

Where [4] appears, read: SPR Single Cycle Kinetics, 1:1 binding model.

Sequence of GDP-bound HRAS wild-type protein (P01112 whole entry): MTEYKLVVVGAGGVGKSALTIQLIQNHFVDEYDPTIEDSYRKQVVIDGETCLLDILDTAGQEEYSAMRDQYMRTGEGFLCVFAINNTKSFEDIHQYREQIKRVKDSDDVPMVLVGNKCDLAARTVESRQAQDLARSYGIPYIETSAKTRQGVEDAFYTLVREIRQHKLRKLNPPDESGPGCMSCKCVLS
Sequence of GDP-bound NRAS wild-type protein (P01111 whole entry): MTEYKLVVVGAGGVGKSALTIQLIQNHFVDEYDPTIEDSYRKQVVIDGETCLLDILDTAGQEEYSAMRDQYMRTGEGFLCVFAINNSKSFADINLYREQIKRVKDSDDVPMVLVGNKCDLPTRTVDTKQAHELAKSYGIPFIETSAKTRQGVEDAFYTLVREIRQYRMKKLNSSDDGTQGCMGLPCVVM
Sequence of GDP-bound KRAS wild-type protein (P01116 whole entry): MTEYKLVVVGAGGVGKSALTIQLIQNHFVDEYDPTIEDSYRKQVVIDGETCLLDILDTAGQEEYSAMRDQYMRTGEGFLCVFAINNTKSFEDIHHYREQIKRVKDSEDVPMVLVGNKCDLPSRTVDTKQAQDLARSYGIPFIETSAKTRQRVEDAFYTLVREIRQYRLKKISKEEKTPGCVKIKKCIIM

Regarding `CC[C@H](C)[C@@H]1NC(=O)[C@H](CC(C)C)N(C)C(=O)C[C@@H](C(=O)N2CCOCC2)N(C)C(=O)[C@H](C2CCCC2)N(C)C(=O)C2(CCCC2)NC(=O)[C@@H]2C[C@H](O)CN2C(=O)[C@H](CCc2cc(F)c(C(F)(F)F)c(F)c2)NC(=O)CN(C)C(=O)[C@H](Cc2ccc(C(F)(F)F)cc2)N2CCCC[C@@H](C2=O)N(C)C(=O)CN(C)C1=O` [PP0556], in assay [1] (setting [4]), the Kd amounted to 0.024 nM. In assay [2], the “NRAS/KRAS (ratio of KD value with respect to NRAS to KD value with respect to KRAS)” value was “C (A compound having a KD ratio of 0.1 or more and less than 3 is denoted as C)”. Also, in assay [3], the “HRAS/KRAS (ratio of KD value with respect to HRAS to KD value with respect to KRAS)” value was “B (a compound having 3 or more and less than 10 is denoted as B)”.

With `CC[C@H](C)[C@@H]1NC(=O)[C@H](CC(C)C)N(C)C(=O)C[C@@H](C(=O)N(C)C)N(C)C(=O)[C@H](C2CCCC2)N(C)C(=O)C2(CCC2)NC(=O)[C@@H]2CC(F)(F)CN2C(=O)[C@H](CCc2cc(F)c(C(F)(F)F)c(F)c2)NC(=O)CN(C)C(=O)[C@H](Cc2ccc(C(F)(F)F)cc2)N2CCCCC[C@@H](C2=O)N(C)C(=O)CN(C)C1=O` [PP0466], in assay [1] (setting [4]), the Kd amounted to 0.2 nM. Further, the “NRAS/KRAS (ratio of KD value with respect to NRAS to KD value with respect to KRAS)” value in assay [2] was “B (a compound having 3 or more and less than 10 is denoted as B)”. For the same compound, the “HRAS/KRAS (ratio of KD value with respect to HRAS to KD value with respect to KRAS)” value in assay [3] is “B (a compound having 3 or more and less than 10 is denoted as B)”.

As to `CCCN1C(=O)[C@@H]2CCN2C(=O)CN(C)C(=O)[C@H]([C@@H](C)CC)NC(=O)[C@H](CC(C)C)N(C)C(=O)C[C@@H](C(=O)N2CCOCC2)N(C)C(=O)[C@H](C2CCCC2)N(C)C(=O)[C@](C)(CC(C)C)NC(=O)[C@@H]2CCCN2C(=O)[C@H](CCc2cc(F)c(C(F)(F)F)c(F)c2)NC(=O)CN(C)C(=O)[C@@H]1Cc1ccc(C(F)(F)F)cc1` [PP0795] ([NMeL]I[Sar][Aze][NPrPhe(4-CF3)][Sar][hPhe(3,5-F2-4-CF3)]P[αMeL][NMeGly(cPent)][NMeD]-Morpholide; lactam N-11), in assay [1] (setting [4]), the Kd came to 2.5 nM. Also, in assay [2], the “NRAS/KRAS (ratio of KD value with respect to NRAS to KD value with respect to KRAS)” value is “C (A compound having a KD ratio of 0.1 or more and less than 3 is denoted as C)”. Also, the “HRAS/KRAS (ratio of KD value with respect to HRAS to KD value with respect to KRAS)” value in assay [3] was “B (a compound having 3 or more and less than 10 is denoted as B)”.

For the compound `CCC[C@H]1C(=O)N[C@@H]([C@@H](C)CC)C(=O)N(C)CC(=O)N(C)CC(=O)N(CCC)[C@@H](Cc2ccc(C(F)(F)F)cc2)C(=O)N(C)CC(=O)N[C@@H](CCc2ccc(C(F)(F)F)c(Cl)c2)C(=O)N2CC(F)(F)C[C@H]2C(=O)NC2(CCCC2)C(=O)N(C)[C@@H](C2CCCC2)C(=O)N(C)[C@H](C(=O)N2CCOCC2)CC(=O)N1C` [PP0201] ([NMeNva]I[Sar][Sar][NPrPhe(4-CF3)][Sar][hPhe(3-Cl-4-CF3)][Pro(4,4-F2)][Ac5c][NMeGly(cPent)][NMeD]-Morpholide; lactam N-11), the equilibrium dissociation constant (Kd) in assay [1] (setting [4]) is 0.06 nM. For the same compound, the “NRAS/KRAS (ratio of KD value for NRAS to KD value for KRAS)” value in assay [2] is “B (a compound having 3 or more and less than 10 is denoted as B)”. In addition, the “HRAS/KRAS (ratio of KD value for HRAS to KD value for KRAS)” value in assay [3] is “C (A compound having a KD ratio of 0.1 or more and less than 3 is denoted as C)”.

In the case of `CCCN1C(=O)[C@@H]2CCN2C(=O)[C@H](C)N(C)C(=O)[C@H]([C@@H](C)CC)NC(=O)[C@H](CC(C)C)N(C)C(=O)C[C@@H](C(=O)N2CCOCC2)N(C)C(=O)[C@H](C2CCCC2)N(C)C(=O)C2(CCC2)NC(=O)[C@@H]2CCCN2C(=O)[C@H](CCc2ccc(C(F)(F)F)c(Cl)c2)NC(=O)CN(C)C(=O)[C@@H]1Cc1ccc(C(F)(F)F)cc1` [PP0198] ([NMeL]I[NMeA][Aze][NPrPhe(4-CF3)][Sar][hPhe(3-Cl-4-CF3)]P[Ac4c][NMeGly(cPent)][NMeD]-Morpholide; lactam N-11), the Kd in assay [1] (setting [4]) amounted to 0.19 nM. Moreover, in assay [2], the “NRAS/KRAS (ratio of KD value for NRAS to KD value for KRAS)” value was “C (A compound having a KD ratio of 0.1 or more and less than 3 is denoted as C)”. Moreover, in assay [3], the “HRAS/KRAS (ratio of KD value for HRAS to KD value for KRAS)” value was “B (a compound having 3 or more and less than 10 is denoted as B)”.

With `CCC[C@H]1C(=O)N[C@@H](C2CCCC2)C(=O)N(C)CC(=O)N(C)[C@H]2C/C=C\CCN(C2=O)[C@@H](Cc2ccc(C)cc2)C(=O)N(C)CC(=O)N[C@@H](CCc2cc(F)c(C(F)(F)F)c(F)c2)C(=O)N2CC3(CC3)C[C@H]2C(=O)NC2(CC(C)(C)C2)C(=O)N(C)[C@@H](CC(C)(C)C)C(=O)N(C)[C@H](C(=O)N(C)C)CC(=O)N1C` [PP2999], the Kd in assay [1] (SPR, Single Cycle Kinetics) worked out at 0.13 nM. The “NRAS/KRAS (ratio of KD value for NRAS to KD value for KRAS)” value in assay [2] is recorded as “AA (a compound having 20 or more is denoted as AA)”. For the same compound, in assay [3], the “HRAS/KRAS (ratio of KD value for HRAS to KD value for KRAS)” value is “A (a compound having 10 or more and less than 20 is denoted as A)”.

Take `CCC[C@H]1C(=O)N[C@@H]([C@@H](C)CC)C(=O)N(C)CC(=O)N(C)[C@H]2C/C=C\CCN(C2=O)[C@@H](Cc2ccc(C)cc2)C(=O)N(C)CC(=O)N[C@@H](CCc2ccc(Cl)c(C(F)(F)F)c2)C(=O)N2C[C@H](OCC)C[C@H]2C(=O)NC2(CC(C)(C)C2)C(=O)N(C)[C@@H](C2CCCC2)C(=O)N(C)[C@H](C(=O)N(C)C)CC(=O)N1C` [PP2786]: in assay [1] (setting [4]), the Kd is 0.14 nM. Besides, in assay [2] (SPR KD ratio NRAS/KRAS, class symbols), the “NRAS/KRAS (ratio of KD value with respect to GDP-bound NRAS wild-type protein to KD value with respect to KRAS)” value was “A (a compound having 10 or more and less than 20 is denoted as A)”. For the same compound, the “HRAS/KRAS (ratio of KD value with respect to GDP-bound HRAS wild-type protein to KD value with respect to KRAS)” value in assay [3] (SPR KD ratio HRAS/KRAS, class symbols) was “A (a compound having 10 or more and less than 20 is denoted as A)”.

On to `CCO[C@@H]1C[C@H]2C(=O)N[C@@]3(C)CCCCCCC[C@@H](C(=O)N[C@@H]([C@@H](C)CC)C(=O)N(C)CC(=O)N(C)[C@H]4CCCCN(C4=O)[C@@H](Cc4ccc(C(F)(F)F)cc4)C(=O)N(C)CC(=O)N[C@@H](CCc4cc(F)c(C(F)(F)F)c(F)c4)C(=O)N2C1)N(C)C(=O)C[C@@H](C(=O)N1CCOCC1)N(C)C(=O)[C@H](C1CCCC1)N(C)C3=O` [PP0993], for which, in assay [1] (SPR, Single Cycle Kinetics), the Kd was found to be 1.4 nM. Moreover, the “NRAS/KRAS (ratio of KD value for NRAS to KD value for KRAS)” value in assay [2] was “B (a compound having 3 or more and less than 10 is denoted as B)”. Moreover, the “HRAS/KRAS (ratio of KD value for HRAS to KD value for KRAS)” value in assay [3] was “B (a compound having 3 or more and less than 10 is denoted as B)”.

On to `CCCN(C)C(=O)[C@@H]1CC(=O)N(C)[C@@H](C2CC2)C(=O)N[C@@H]([C@@H](C)CC)C(=O)N(C)CC(=O)N(C)[C@H]2C/C=C\CCN(C2=O)[C@@H](Cc2ccc(C(F)(F)F)cc2)C(=O)N(C)CC(=O)N[C@@H](CCc2ccc(C(F)(F)F)c(OC)c2)C(=O)N2C[C@@H](C)C[C@H]2C(=O)NC2(CCC2)C(=O)N(C)[C@@H](C2CCCC2)C(=O)N1C` [PP2070], for which the Kd in assay [1] (SPR, Single Cycle Kinetics) was 0.11 nM. For the same compound, the “NRAS/KRAS (ratio of KD value for NRAS to KD value for KRAS)” value in assay [2] is “A (a compound having 10 or more and less than 20 is denoted as A)”. Besides, in assay [3], the “HRAS/KRAS (ratio of KD value for HRAS to KD value for KRAS)” value is “A (a compound having 10 or more and less than 20 is denoted as A)”.

For the compound `CC[C@H](C)[C@@H]1NC(=O)[C@H](CC(C)C)N(C)C(=O)C[C@@H](C(=O)N2CCOCC2)N(C)C(=O)[C@H](C2CCCC2)N(C)C(=O)C2(CCCC2)NC(=O)[C@@H]2CCCN2C(=O)[C@H](CCc2cc(F)c(C(F)(F)F)c(F)c2)NC(=O)CN(C)C(=O)[C@H](Cc2ccc(C(F)(F)F)cc2)N2CCCC[C@@H](C2=O)N(C)C(=O)[C@@H]2CCCCN2C1=O` [PP0548], the Kd in assay [1] (setting [4]) is 15 nM. The “NRAS/KRAS (ratio of KD value with respect to NRAS to KD value with respect to KRAS)” value in assay [2] is “C (A compound having a KD ratio of 0.1 or more and less than 3 is denoted as C)”. The “HRAS/KRAS (ratio of KD value with respect to HRAS to KD value with respect to KRAS)” value in assay [3] is “B (a compound having 3 or more and less than 10 is denoted as B)”.

These data come from patent publication US20240158446A1, “CYCLIC COMPOUND HAVING SELECTIVE INHIBITORY ACTION ON KRAS OVER HRAS AND NRAS” (CHUGAI SEIYAKU KABUSHIKI KAISHA, priority 2021, published 2024).
